From ChEMBL document CHEMBL1201862, “PubChem BioAssay data set” (2004)
Activity calls are given as the source filed them.

Key:
[1] = biological target: T1, Runt-related transcription factor 1/Core-binding factor subunit beta (Homo sapiens, UniProt Q01196+Q13951); assay: inhibitors of RUNX1 Runt–CBFb-SMMHC binding, biochemical, TR-FRET (AID 1438); assay type: protein assay
[2] = biological target: T1, Runt-related transcription factor 1/Core-binding factor subunit beta; assay: Confirmation of compounds inhibiting the binding between the RUNX1 Runt domain and CBFb-SMMHC via a fluorescence resonance energy transfer (FRET) assay. [Related pubchem assays (depositor defined):AID1434, AID1438, AID1496, AID1550, AID1645]; assay type: protein assay
[3] = biological target: T1, Runt-related transcription factor 1/Core-binding factor subunit beta; assay: inhibitors of RUNX1 Runt–CBFb-SMMHC binding, primary screen, biochemical, FRET, Cerulean-Runt, Venus-CBFb-SMMHC, uHTS (AID 1434); assay type: protein assay;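 further: partner is the CBFb-SMMHC leukemia fusion protein rather than wild-type CBFb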
[4] = biological target: T2, Mannose-6-phosphate isomerase (Homo sapiens, UniProt P34949); assay: PMI enzyme inhibitors, confirmation, biochemical, fluorescence intensity (AID 1535)
T2 sequence (P34949 whole entry): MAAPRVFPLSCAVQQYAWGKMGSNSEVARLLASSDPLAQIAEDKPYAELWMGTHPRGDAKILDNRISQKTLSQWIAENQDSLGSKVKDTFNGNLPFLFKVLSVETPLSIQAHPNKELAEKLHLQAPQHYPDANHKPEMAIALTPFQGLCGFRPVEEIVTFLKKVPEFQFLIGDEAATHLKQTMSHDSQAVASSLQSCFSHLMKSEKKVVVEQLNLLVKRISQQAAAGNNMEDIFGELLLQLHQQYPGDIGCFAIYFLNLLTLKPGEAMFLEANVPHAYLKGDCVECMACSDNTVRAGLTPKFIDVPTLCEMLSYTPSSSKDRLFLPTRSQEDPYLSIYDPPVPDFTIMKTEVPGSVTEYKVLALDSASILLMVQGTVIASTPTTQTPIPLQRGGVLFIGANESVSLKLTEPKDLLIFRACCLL

Phosphomannomutase 2 = biological target: T3, Phosphomannomutase 2 (Homo sapiens, UniProt O15305); assay: Counter screen SAR assay for PMM2 inhibitors via a fluorescence intensity assay. [Related pubchem assays (depositor defined):AID1545, AID1574]
T3 sequence (O15305 whole entry): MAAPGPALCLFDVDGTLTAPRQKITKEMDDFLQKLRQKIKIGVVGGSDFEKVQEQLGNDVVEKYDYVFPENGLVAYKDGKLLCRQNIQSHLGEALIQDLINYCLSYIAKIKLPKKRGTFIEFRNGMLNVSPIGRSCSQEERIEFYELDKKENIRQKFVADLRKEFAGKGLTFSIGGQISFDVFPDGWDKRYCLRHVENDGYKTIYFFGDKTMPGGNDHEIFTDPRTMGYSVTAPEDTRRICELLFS

[5] = biological target: Dual specificity protein phosphatase 3 (Homo sapiens, UniProt P51452); assay: SAR VHR1 Fluorescent Assay for In Vitro dose response studies Set 2. [Related pubchem assays (depositor defined):AID1654, AID1661, AID1878]; assay type: functional
[6] = biological target: T4, Tyrosine-protein phosphatase non-receptor type 7 (Homo sapiens, UniProt P35236); assay: SAR analysis of chemical inhibitors of HePTP using a Fluorescent assay - Set 2. [Related pubchem assays (depositor defined):AID1059, AID1077, AID1661, AID2085, AID521]; assay type: functional
T4 sequence (P35236 whole entry): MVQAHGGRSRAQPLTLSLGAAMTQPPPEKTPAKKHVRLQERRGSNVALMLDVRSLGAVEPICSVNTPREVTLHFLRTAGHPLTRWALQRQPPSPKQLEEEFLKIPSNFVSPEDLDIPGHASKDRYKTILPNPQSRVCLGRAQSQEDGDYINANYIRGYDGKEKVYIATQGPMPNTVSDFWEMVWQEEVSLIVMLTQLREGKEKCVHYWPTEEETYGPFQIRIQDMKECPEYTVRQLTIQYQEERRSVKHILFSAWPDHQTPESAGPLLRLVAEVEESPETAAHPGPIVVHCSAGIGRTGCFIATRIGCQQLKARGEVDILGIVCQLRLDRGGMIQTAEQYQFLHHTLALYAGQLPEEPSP

[7] = biological target: T2, Mannose-6-phosphate isomerase; assay: inhibitors of human PMI, primary screen, biochemical, fluorescence intensity, coupled assay (AID 1209)
cells = assay type: functional
[8] = microbe, parasite or virus in culture; assay type: functional; settings: Mycobacterium tuberculosis
[9] = Vero E6 cell cytotoxicity, dose response, cytotoxicity control for non-replicating M. tuberculosis project, secondary assay (AID 492998); assay type: functional, VeroE6; settings: Vero C1008
[10] = biological target: T5, Zinc finger protein mex-5 (Caenorhabditis elegans, UniProt Q9XUB2); assay: MEX-5/TCR-2 RNA interaction inhibitors, dose response, biochemical, C. elegans, fluorescence polarization (AID 1960)
T5 sequence (Q9XUB2 whole entry): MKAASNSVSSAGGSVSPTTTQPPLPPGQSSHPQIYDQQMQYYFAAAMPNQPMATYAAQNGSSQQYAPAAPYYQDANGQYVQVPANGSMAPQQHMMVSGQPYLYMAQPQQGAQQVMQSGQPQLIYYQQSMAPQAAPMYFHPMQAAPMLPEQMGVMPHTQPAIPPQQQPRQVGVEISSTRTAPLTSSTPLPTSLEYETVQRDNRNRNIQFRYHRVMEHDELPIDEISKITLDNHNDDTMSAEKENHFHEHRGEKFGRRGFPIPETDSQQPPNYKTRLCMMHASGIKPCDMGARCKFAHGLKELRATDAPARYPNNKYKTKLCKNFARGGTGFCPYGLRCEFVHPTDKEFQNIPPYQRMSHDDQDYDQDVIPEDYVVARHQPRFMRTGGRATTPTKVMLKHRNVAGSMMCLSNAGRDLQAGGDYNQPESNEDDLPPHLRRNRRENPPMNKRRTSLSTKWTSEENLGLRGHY

Mucolipin-3 = Mucolipin-3 (Homo sapiens, UniProt Q8TDD5); assay: Fluorescence counterscreen assay for […] agonists: dose response cell-based high-throughput screening assay to identify agonists of the transient receptor potential channel ML3 (TRPML3). [Related pubchem assays: 1424, 1448 ]; assay type: functional
Ion channel NompC = Ion channel NompC (Danio rerio, UniProt Q7T1G6); assay: Dose response cell-based high-throughput screening assay for agonists of the transient receptor potential channel N1 (TRPN1). [Related pubchem assays (depositor defined):AID1424, AID1448]; assay type: functional
[11] = biological target: T6, RNA-binding protein pos-1 (Caenorhabditis elegans, UniProt G5EF15); assay: inhibitors of POS-1/mex-3 RNA binding, dose response, biochemical, fluorescence polarization (AID 1964);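 further: purified POS-1 fused to maltose binding protein made in E. coli; potency of compounds blocking POS-1 binding to fluorescent RNA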
T6 sequence (G5EF15 whole entry): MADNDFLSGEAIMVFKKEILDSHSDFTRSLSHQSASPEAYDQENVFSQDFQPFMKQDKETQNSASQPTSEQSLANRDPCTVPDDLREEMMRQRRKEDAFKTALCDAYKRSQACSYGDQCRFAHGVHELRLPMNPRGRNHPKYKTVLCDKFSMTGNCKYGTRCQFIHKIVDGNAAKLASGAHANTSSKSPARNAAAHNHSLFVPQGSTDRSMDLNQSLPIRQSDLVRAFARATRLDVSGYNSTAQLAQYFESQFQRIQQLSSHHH

Beta-lactamase [12] = biological target: Beta-lactamase (Salmonella choleraesuis (strain SC-B67), UniProt Q5J463)
Beta-lactamase [13] = biological target: Beta-lactamase (Pseudomonas aeruginosa, UniProt Q79MP6);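 further: biochemical dose-response test of metallo-beta-lactamase enzyme inhibition, read out by epi-absorbance; purified recombinant IMP-1 metallo-beta-lactamase with nitrocefin as substrate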
Chain of Beta-lactamase (Pseudomonas aeruginosa, UniProt Q79MP6) (Q79MP6 whole entry): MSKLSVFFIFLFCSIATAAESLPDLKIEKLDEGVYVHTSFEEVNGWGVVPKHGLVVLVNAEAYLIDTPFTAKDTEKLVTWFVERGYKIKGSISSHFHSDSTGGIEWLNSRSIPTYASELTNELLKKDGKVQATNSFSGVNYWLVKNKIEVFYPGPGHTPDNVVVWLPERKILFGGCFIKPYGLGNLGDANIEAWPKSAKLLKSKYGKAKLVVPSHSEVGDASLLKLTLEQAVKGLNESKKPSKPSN

T1 sequence (Q01196 whole entry, the tested form may be a part): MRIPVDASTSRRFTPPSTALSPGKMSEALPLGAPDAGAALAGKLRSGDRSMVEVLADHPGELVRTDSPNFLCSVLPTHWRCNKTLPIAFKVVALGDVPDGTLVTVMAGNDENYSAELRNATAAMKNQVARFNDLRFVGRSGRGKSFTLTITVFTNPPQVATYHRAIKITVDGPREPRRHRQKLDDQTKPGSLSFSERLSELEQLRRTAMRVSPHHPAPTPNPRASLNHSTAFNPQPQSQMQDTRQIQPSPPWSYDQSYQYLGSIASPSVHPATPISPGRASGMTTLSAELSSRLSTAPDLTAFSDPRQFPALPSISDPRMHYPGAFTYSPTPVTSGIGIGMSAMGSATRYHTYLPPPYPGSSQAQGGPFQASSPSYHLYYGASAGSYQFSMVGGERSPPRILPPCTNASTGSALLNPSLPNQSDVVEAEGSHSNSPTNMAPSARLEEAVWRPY
T1 sequence (Q13951 whole entry, the tested form may be a part): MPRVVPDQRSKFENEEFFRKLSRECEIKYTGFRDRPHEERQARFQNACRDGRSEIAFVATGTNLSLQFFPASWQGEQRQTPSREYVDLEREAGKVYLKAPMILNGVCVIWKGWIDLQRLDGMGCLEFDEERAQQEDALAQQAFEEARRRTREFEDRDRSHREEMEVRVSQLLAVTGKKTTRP
Chain of Dual specificity protein phosphatase 3 (P51452 whole entry): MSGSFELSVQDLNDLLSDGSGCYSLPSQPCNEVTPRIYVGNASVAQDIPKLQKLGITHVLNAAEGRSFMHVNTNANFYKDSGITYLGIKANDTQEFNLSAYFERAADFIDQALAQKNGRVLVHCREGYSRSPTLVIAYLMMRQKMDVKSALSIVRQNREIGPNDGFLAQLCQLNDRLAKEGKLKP
Chain of Beta-lactamase (Salmonella choleraesuis (strain SC-B67), UniProt Q5J463) (Q5J463 whole entry): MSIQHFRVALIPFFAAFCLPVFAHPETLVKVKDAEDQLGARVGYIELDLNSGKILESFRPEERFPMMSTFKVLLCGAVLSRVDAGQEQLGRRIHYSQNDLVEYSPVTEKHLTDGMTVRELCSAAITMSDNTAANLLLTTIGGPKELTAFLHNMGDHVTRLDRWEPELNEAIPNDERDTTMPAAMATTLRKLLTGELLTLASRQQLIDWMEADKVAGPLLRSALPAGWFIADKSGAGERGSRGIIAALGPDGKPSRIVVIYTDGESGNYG
Chain of Ion channel NompC (Q7T1G6 whole entry, the tested form may be a part): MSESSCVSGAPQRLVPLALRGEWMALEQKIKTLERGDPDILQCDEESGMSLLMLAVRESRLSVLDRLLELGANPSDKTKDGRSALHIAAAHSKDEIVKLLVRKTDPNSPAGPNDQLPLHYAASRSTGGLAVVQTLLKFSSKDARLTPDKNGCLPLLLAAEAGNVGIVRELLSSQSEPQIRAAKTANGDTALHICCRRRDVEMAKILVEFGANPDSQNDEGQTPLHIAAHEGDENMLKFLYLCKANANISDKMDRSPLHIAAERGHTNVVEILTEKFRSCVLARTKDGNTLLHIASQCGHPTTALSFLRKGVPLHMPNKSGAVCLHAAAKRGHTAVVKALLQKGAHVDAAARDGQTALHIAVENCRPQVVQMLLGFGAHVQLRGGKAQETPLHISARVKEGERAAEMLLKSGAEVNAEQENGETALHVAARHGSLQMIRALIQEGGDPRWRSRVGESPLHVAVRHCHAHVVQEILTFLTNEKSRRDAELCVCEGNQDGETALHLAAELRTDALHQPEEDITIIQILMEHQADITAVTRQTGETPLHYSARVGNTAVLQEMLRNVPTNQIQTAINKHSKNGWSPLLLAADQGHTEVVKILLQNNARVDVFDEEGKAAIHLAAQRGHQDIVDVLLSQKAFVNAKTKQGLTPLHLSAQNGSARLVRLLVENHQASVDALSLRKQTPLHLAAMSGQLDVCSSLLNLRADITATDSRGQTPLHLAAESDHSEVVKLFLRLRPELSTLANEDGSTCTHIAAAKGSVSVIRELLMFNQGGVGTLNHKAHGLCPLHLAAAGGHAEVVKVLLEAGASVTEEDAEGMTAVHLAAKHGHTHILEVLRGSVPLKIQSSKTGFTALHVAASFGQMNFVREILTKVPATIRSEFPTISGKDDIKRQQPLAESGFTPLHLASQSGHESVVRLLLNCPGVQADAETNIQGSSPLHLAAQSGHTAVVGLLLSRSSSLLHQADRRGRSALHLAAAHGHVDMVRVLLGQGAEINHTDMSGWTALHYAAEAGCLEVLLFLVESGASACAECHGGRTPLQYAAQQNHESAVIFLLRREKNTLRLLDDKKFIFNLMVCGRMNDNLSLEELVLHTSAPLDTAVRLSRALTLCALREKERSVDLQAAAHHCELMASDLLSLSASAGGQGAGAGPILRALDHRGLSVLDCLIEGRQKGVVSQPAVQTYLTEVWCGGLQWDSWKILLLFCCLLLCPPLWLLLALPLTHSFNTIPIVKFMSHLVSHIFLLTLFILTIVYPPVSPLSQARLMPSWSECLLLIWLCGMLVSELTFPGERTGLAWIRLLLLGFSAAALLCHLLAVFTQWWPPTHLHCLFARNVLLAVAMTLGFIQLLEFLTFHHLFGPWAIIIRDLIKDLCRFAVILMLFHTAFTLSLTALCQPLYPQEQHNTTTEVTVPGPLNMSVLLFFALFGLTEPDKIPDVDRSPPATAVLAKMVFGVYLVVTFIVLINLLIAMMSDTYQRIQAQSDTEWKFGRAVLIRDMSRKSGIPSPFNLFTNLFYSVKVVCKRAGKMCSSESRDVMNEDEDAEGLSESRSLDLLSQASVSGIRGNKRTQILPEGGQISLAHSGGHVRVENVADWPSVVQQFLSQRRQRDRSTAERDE
Chain of Mucolipin-3 (Q8TDD5 whole entry): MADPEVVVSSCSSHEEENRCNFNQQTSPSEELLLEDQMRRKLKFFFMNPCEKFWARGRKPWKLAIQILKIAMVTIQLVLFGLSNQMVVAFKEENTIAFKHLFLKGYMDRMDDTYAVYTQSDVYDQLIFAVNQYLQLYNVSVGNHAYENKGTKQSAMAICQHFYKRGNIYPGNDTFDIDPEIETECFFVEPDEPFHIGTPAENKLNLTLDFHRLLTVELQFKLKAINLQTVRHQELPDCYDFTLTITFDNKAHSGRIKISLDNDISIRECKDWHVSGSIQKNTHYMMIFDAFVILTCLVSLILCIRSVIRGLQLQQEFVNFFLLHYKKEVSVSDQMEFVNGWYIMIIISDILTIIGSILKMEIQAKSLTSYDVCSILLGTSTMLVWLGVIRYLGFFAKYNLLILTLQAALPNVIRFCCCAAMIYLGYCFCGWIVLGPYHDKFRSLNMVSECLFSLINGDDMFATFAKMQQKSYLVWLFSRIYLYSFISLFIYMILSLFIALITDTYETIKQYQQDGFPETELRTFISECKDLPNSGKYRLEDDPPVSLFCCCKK

## Cc1nc2ccc(S(=O)(=O)Nc3ccc(-c4nc5cccnc5s4)cc3)cc2s1
[1]
  IC50: > 100 µM (inactive)
[2]
  IC50: 0.713 µM (active)
[3]
  IC50: 1.6 µM (active)

## CCOc1ccc(NC(=S)Nc2cc(C)n[nH]2)cc1
[4]
  IC50: > 50 µM (inactive)
Phosphomannomutase 2
  IC50: > 100 µM (inactive)
[5]
  IC50: > 100 µM (inactive)
[6]
  IC50: > 100 µM (inactive)
[7]
  IC50: 9.41 µM (active)

## Cc1cc(C)n2[nH]c(=O)c(N=Nc3cccc(C(F)(F)F)c3)c2n1
cells
  IC50: 18.7 µM (active)
[8]
  CC50: 26.2 µM (active)
[9]
  CC50: 20 µM (active)

## CCCN1C(=O)c2cccc3c(N4CCCCC4)ccc(c23)C1=O
[10]
  EC50: 51 µM (inconclusive)
Mucolipin-3
  EC50: > 9.97 µM (not active)
Ion channel NompC
  EC50: > 9.97 µM (inactive)
[11]
  EC50: 29.8 µM (active)
Beta-lactamase [12]
  IC50: > 59.6 µM (inactive)
Beta-lactamase [13]
  IC50: > 59.6 µM (inactive)
